This is an account of results in patent USRE46856E1, “Substituted 2,3-dihydroimidazo[1,2-c]quinazoline derivatives useful for treating hyper-proliferative disorders and diseases associated with angiogenesis” (Bayer Intellectual Property GmbH, priority 2006, dated 2018).

Where a name gives a salt, the structure may show the parent alone. Some results are limits rather than exact numbers.

In this test the test system is IGF-1 induced AKT phosphorylation in A549 cells. Briefly: IGF-1 induced AKT phosphorylation assay (A549 cell assay). Type of test: cell-based. Conditions: Homo sapiens; A549 cells, 25 ng/ml IGF-1, phospho-AKT(Ser 473); read-out: average IC50 in the A549 cell assay. An excerpt: [Determination of IC50 Values of Compounds in Cell Based Assays of PI3K Activity] 96-well collagen treated clear bottom/black sided Costar plates were purchased from CORNING LIFE SCIENCES (Corning, N.Y.; at.#3904). Gibco RPMI medium (Cat.#11875), Biosource anti-phospho-AKT([…]) antibody (Cat.#44-621G) and recombinant IGF-1 (Cat.#PHG0074) were purchased from INVITROGEN (Carlsbad, Calif.). The secondary donkey anti-rabbit IgG horse radish peroxidase conjugate (Cat. #N[…]) and ECL chemiluminesence reagent (Cat.#RPN2209) were purchased from […] (Buckinghamshire, UK). Cell culture tested bovine serum albumin solution (35% in DPBS; Cat.#A7979) and all other chemicals were purchased from SIGMA (St. Louis, Mo.). The Wallac Victor2 1420 Multilabel HTS Counter was purchased from […] (Wellesley, Mass.) […] All wells (except no IGF-1 controls) were then treated with 25 ng/ml IGF-1 for 10 minutes at 37° C. in a 5% CO2 incubator. Following removal of the supernatants and washing with the wells with TBS (50 mM Tris pH 8.0 containing 138 mM NaCL and 27 mM KCl), 200 µL of 3.7% formaldehyde in TBS was added to each well, and the plate was incubated at 4° C. for 10 minutes. Supernatants were once again removed and replaced with 50 μL Methanol (-20° C.) and the plate incubated at 4° C. for 5 minutes. 200 μL of 0.1% BSA in TBS was then added to each well and the plate incubated at room temperature for 1⁄2 hour. Supernatants were removed and 50 μL of a solution comprising the primary anti-phospho-AKT([…]) antibody diluted 1:250 in TBS containing 0.1% BSA was added to each well (except control/background wells). The plate was then incubated for 11⁄2 hour at room temperature. Supernatants were removed, each well was washed 3 times with 200 μL TBS, and 100 μL of a solution containing the secondary donkey anti-rabbit IgG antibody HRP-conjugate diluted 1:100 in TBS-T (TBS containing 0.1% triton). Plates were then incubated for 1 hour at room temperature. After removing the secondary antibody, each well was washed 6 times with cold TBS-T, 100 μL of ECL was added to each well, and the plate was placed on an orbital shaker for 1 minute. The plates were then read on a Wallac Victor2 1420 Multilabel HTS Counter using the luminometry window (maximum light detection is measured at […]). IC50 values were determined from the inhibition curve.
As to `COCCN1CCOC(COc2ccc3c(c2OC)N=C(NC(=O)c2cccnc2)N2CCN=C32)C1` (stereo not drawn) [Example 22, N-(7-methoxy-8-{[4-(2-methoxyethyl)morpholin-2-yl]methoxy}-2,3-dihydroimidazo[1,2-c]quinazolin-5-yl)nicotinamide], the half-maximal inhibitory concentration (IC50) is less than 100 nM. Then `COc1c(OCCCN2CCOCC2)ccc2c1N=C(NC(=O)c1ccc(N)nc1)N1CCN=C21` [Example 83, 6-amino-N-[7-methoxy-8-(3-morpholin-4-ylpropoxy)-2,3-dihydroimidazo[1,2-c]quinazolin-5-yl]nicotinamide], with less than 100 nM. For `CCNc1nc(C(=O)NC2=Nc3c(ccc(OCCCN4CCOCC4)c3OC)C3=NCCN23)cs1` [Example 80, 2-(ethylamino)-N-[7-methoxy-8-(3-morpholin-4-ylpropoxy)-2,3-dihydroimidazo[1,2-c]quinazolin-5-yl]-1,3-thiazole-4-carboxamide] the value was 100 to 1000 nM.

On to `CNc1nc(C(=O)NC2=Nc3c(ccc(OCCCN4CCOCC4)c3OC)C3=NCCN23)cs1` [Example 67, N-[7-methoxy-8-(3-morpholin-4-ylpropoxy)-2,3-dihydroimidazo[1,2-c]quinazolin-5-yl]-2-(methylamino)-1,3-thiazole-4-carboxamide], for which the IC50 was 100 to 1000 nM. For `COc1c(OCCCN2CCOCC2)ccc2c1N=C(NC(=O)c1ccc(NC(=O)NC(C)C)nc1)N1CCN=C21` [Example 71, 6-{[(isopropylamino)carbonyl]amino}-N-[7-methoxy-8-(3-morpholin-4-ylpropoxy)-2,3-dihydroimidazo[1,2-c]quinazolin-5-yl]nicotinamide] the value was less than 100 nM; for `COc1c(OCCCN2CCOCC2)ccc2c1N=C(NC(=O)c1ccc(F)nc1)N1CCN=C21` [Example 78, 6-fluoro-N-[7-methoxy-8-(3-morpholin-4-ylpropoxy)-2,3-dihydroimidazo[1,2-c]quinazolin-5-yl]nicotinamide], 100 to 1000 nM; for `COc1c(OCCCN2CCOCC2)ccc2c1N=C(NC(=O)c1ccoc1)N1CCN=C21` [Example 96, N-[7-methoxy-8-(3-morpholin-4-ylpropoxy)-2,3-dihydroimidazo[1,2-c]quinazolin-5-yl]-3-furamide], 100 to 1000 nM.

Turning to `COc1c(OCCN2CCCCC2)ccc2c1N=C(NC(=O)c1cccnc1)N1CCN=C21` [Example 76, N-[7-methoxy-8-(2-piperidin-1-ylethoxy)-2,3-dihydroimidazo[1,2-c]quinazolin-5-yl]nicotinamide], the IC50 is less than 100 nM. Take `COc1c(OCCCN2C[C@@H](C)O[C@@H](C)C2)ccc2c1N=C(NC(=O)c1cccnc1)N1CCN=C21` [Example 2, N-(8-{3-[(2R,6S)-2,6-dimethylmorpholin-4-yl]propoxy}-7-methoxy-2,3-dihydroimidazo[1,2-c]quinazolin-5-yl)nicotinamide]: the IC50 is less than 100 nM. Then `COc1c(OCCCN2CCOCC2)ccc2c1N=C(NC(=O)c1sc(C)nc1C)N1CCN=C21` [Example 94, N-[7-methoxy-8-(3-morpholin-4-ylpropoxy)-2,3-dihydroimidazo[1,2-c]quinazolin-5-yl]-2,4-dimethyl-1,3-thiazole-5-carboxamide], with less than 100 nM; and `COc1c(OCCCN(C)C)ccc2c1N=C(NC(=O)c1cnc(N)s1)N1CCN=C21` [Example 37, 2-amino-N-{8-[3-(dimethylamino)propoxy]-7-methoxy-2,3-dihydroimidazo[1,2-c]quinazolin-5-yl}-1,3-thiazole-5-carboxamide], with less than 100 nM; and `COc1c(OCCCN)ccc2c1N=C(NC(=O)c1cccnc1)N1CCN=C21` [Example 92, N-[8-(3-aminopropoxy)-7-methoxy-2,3-dihydroimidazo[1,2-c]quinazolin-5-yl]nicotinamide trifluoroacetate], with greater than 1000 nM.

Usually IC50 stands for the point on the concentration scale where inhibition reaches its midpoint.
